Reference: ChEMBL document CHEMBL1123871, “Methotrexate analogues. 30. Dihydrofolate reductase inhibition and in vitro tumor cell growth inhibition by N epsilon-(haloacetyl)-L-lysine and N delta-(haloacetyl)-L-ornithine analogues and an acivicin analogue of methotrexate” (J Med Chem, 1987)

Legend:
[1] = system: L1210; test: Inhibition of L1210 cultured murine leukemia cell growth; format: functional, cell-based; settings: Mus musculus
[2] = Fold resistance calculated by dividing the IC50(L1210/R81) by the IC50(L1210)
[3] = system: L1210; test: Inhibition of L1210/R81 murine leukemia cell growth; format: functional, cell-based; settings: Mus musculus
[4] = target: T1, Dihydrofolate reductase (Mus musculus, UniProt P00375)
T1 sequence (P00375 whole entry): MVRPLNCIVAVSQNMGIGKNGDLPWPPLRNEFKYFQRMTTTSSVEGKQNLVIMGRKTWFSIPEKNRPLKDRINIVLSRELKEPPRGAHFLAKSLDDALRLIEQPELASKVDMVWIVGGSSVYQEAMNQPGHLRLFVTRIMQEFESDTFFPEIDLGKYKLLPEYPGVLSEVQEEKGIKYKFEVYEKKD
Description: Inhibition of dihydrofolate reductase(DHFR) from L1210/R81 cells

| SMILES | IC50 [1] | Resistance [2] | IC50 [3] | IC50 [4] |
| --- | --- | --- | --- | --- |
| CN(Cc1cnc2nc(N)nc(N)c2n1)c1ccc(C(=O)N[C@@H](CCC(=O)O)C(=O)O)cc1 [METHOTREXATE] | 5 nM | 44000 |  |  |
| CN(Cc1cnc2nc(N)nc(N)c2n1)c1ccc(C(=O)NC(CCCCNC(=O)CCl)C(=O)O)cc1 (stereo not drawn) | 33 nM | 2800 | 93 nM | 32 nM |
| CN(Cc1cnc2nc(N)nc(N)c2n1)c1ccc(C(=O)NC(CCCNC(=O)CBr)C(=O)O)cc1 (stereo not drawn) | 126 nM | 1200 | 155 nM | 46 nM |
| CN(Cc1cnc2nc(N)nc(N)c2n1)c1ccc(C(=O)NC(CCCNC(=O)CCl)C(=O)O)cc1 (stereo not drawn) | 62 nM | 1700 | 105 nM | 32 nM |
| CN(Cc1cnc2nc(N)nc(N)c2n1)c1ccc(C(=O)NC(CCCCNC(=O)CBr)C(=O)O)cc1 (stereo not drawn) | 96 nM | 2500 | 240 nM | 72 nM |
